Laboratory results as given in patent US20100130549A1, “PSYCHOTROPIC COMPOUNDS, COMPOSITIONS AND METHODS OF USE” (priority 2007, published 2010).

How the values were obtained:
BALB/c mice [1] = assay: Open field test
ICR male mice = assay: Subchronic ip administration (toxicity); type: in vivo
Description: […]. Except for this local irritation no other toxicity was noted.
[…]. […] Except of these local irritations no other toxicity was noted.

BALB/c mice [2] = assay: Rotor rod test (motor activity); type: in vivo; details: 10 mg/kg p.o., 90 min after administration; vs controls
Procedure: The test was performed 90 min after oral administration of the compounds. […] The rotor rod test involves placing the mouse on an elevated rotating bar. In this test, the mouse is placed on the bar such that it is facing the direction opposite to the rotation of the rod. The time lag to fall is determined.

BALBc male mice = assay: Hot plate test; type: in vivo; details: 10 mg/kg orally (sertraline equimolar); vs vehicle treated control
Description: The hot-plate test is widely used to measure pain sensation. The latency in response to heat of mice and rats feet is based on the method described by Eddy et al., Synthetic analgesics. II. […] The method is based on placing an animal on heated (52-56 C) surface and measuring the time to response (raising paw, licking of the paw, jumping or running.
The animals were followed for 6 hr.

[3] = 10 and 30 mg/kg ip ×3/week for 2 weeks, sertraline equimolar
[4] = 10 mg/kg (equimolar) ip 1 hr prior, p<0.001 vs controls

Row | Compound | sedative effect accompanying the anxiolytic activity (BALB/c mice [1]; orally 90 min prior) | body weight gain versus controls (ICR male mice; [3]) | chemistry blood picture (ICR male mice; [3]) | histopathology of heart, spleen, liver and kidney (ICR male mice; high dose of 30 mg/kg ip, subchronic, capsule of the abdominal organs) | muscle strength and basic motor activity (BALB/c mice [2]) | latency to heat sensation (BALBc male mice) | total time spent in the center (areas 2+3) (BALB/c mice [1]; 10 mg/kg (equimolar) ip 1 hr prior) | frequency to the center (BALB/c mice [1]; 10 mg/kg (equimolar) ip 1 hr prior, controls 1.23) | distance moved (BALB/c mice [1]; [4]) | velocity (BALB/c mice [1]; [4])
1 | OCCCC#Cc1cc2c(cc1OC[C@@H]1CNCC[C@H]1c1ccc(F)cc1)OCO2 [If] | not accompanied by a sedative effect |  |  |  |  |  |  |  |  | 
2 | CN[C@H]1CC[C@@H](c2ccc(Cl)c(Cl)c2)c2ccccc21 [sertraline, reference compound] |  | no difference | did not show a significant change | minimal to mild irritation | did not modify | significantly increase | significantly increase | 1.27 | significantly increase | significantly increase
